Reference: patent publication US7932382B2, “Conformationally constrained Smac mimetics and the uses thereof” (The Regents of the University of Michigan, priority 2005, dated 2011)
Each block holds one molecule with its values, some of them ahead of it. Where a SMILES comes first, the peptide text is derived from it. [ ]: non-standard residue; d: D form. The star is where a group is joined. 6FAM = O=C1OC2(c3ccc(O)cc3Oc3cc(O)ccc32)c2cc(C(=O)*)ccc21; Abu = CC[C@H](N)C(=O)O

Columns and labels:
MDA-231 cells = assay: Apoptosis by Annexin V-FITC/propidium iodide flow cytometry in MDA-231 cells; type: cell-based, human; conditions: for cells undergoing apoptosis as compared to control cells: 42 hours; for potentiation of the activity of CDDP in inducing apoptosis: MDA-231 cells
Protocol: Similar experiments were performed using the breast cancer cell line MDA-231. MDA-231 cells in 6-well plates were treated with SH-102 and CDDP, alone or on combination, for 42 hours. Cells were collected and stained with Annexin V-FITC and propidium iodide. The fluorescence of Annexin V-FITC and propidium iodide of individual cells was analyzed by flow cytometry. 25 μM and 50 μM CDDP induced about 25% and 42% of MDA-231 cells to undergo apoptosis as compared to control cells, respectively (FIG. 14). […] Combination of 25 and 50 μM CDDP and 10 μM SH-102 induced about 35% and 75% apoptosis over control cells, respectively (FIG. 14).

PC-3 cells = assay: Apoptosis by Annexin V-FITC staining in PC-3 cells; type: cell-based, human; conditions: for potentiation of the activity of CDDP in inducing apoptosis: PC-3 cells
Protocol: PC-3 cells were treated with CDDP, Smac peptides and mimetics alone or in combination for 42 hours and apoptosis was analyzed by Annexin V-FITC staining. […] Combination of 25 μM CDDP and 10 μM or 25 μM SH-97 induced 29.3%±1.9% and 35.8%±0.4% apoptosis over control cells, respectively (FIG. 10A).
Similar experiments were performed with SH-102 (Table 5). PC-3 cells in 6-well plates were treated with SH-102 and CDDP, alone or on combination, for 42 hours. Cells were collected and stained with Annexin V-FITC and propidium iodide. The fluorescence of Annexin V-FITC and propidium iodide of individual cells was analyzed by flow cytometry. […] Combination of 25 μM CDDP and 10 μM SH-102 induced 32% apoptosis over control cells (FIG. 11).
The same experiment was performed using TAXOTERE (docetaxel), another cancer chemotherapeutic drug. PC-3 cells in 6-well plates were treated with SH-102 and TAXOTERE, alone or in combination, for 42 hours. Cells were collected and stained with Annexin V-FITC and propidium iodide. The fluorescence of Annexin V-FITC and propidium iodide of individual cells was analyzed by flow cytometry. […] Combination of 10 μM taxotere and 10 μM SH-102 induced about 18% apoptosis over control cells (FIG. 13).

[1] = target: T1, human XIAP-BIR3 protein (residues 241-356) (Homo sapiens, UniProt P98170); assay: Fluorescence polarization saturation (direct) binding of labeled Smac peptides; design: The human XIAP-BIR3 protein (residues 241-356) with a His tag; conditions: 5 nM labeled peptide titrated with 0 to 40 μM protein; read-out: Kd value (dissociation constant to XIAP-BIR3)
T1 sequence (P98170 241-356): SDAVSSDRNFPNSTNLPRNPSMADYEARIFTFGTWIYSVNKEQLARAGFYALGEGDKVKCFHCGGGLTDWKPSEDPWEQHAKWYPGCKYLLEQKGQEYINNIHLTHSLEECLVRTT

[2] = target: T1, human XIAP-BIR3 protein (residues 241-356); assay: biochemical
[3] = system: MDA-435, MDA468, and T47D cells; assay: Cell growth inhibition (WST-8) in breast cancer cell lines; type: cell-based, human; conditions: all three cell lines, 5 days
Protocol: To test the effect of Smac mimetics by themselves in inhibition of cell growth in human cancer cells, SH-102 was administered to three different breast cancer cell lines. MDA-435, MDA468, and T47D cells were seeded in 96-well plates with increasing concentrations of SH-102, Smac8, or Smac8-C. The cells were then incubated at 37° C. with 5% CO2 for 5 days, followed by detection of cell viability with WST-8. Untreated cells were used as 100% growth. […]. […] (FIGS. 18A-18C).

XIAP = XIAP (Homo sapiens, UniProt P98170); conditions: cited from earlier work
Sequence of XIAP (P98170 whole entry): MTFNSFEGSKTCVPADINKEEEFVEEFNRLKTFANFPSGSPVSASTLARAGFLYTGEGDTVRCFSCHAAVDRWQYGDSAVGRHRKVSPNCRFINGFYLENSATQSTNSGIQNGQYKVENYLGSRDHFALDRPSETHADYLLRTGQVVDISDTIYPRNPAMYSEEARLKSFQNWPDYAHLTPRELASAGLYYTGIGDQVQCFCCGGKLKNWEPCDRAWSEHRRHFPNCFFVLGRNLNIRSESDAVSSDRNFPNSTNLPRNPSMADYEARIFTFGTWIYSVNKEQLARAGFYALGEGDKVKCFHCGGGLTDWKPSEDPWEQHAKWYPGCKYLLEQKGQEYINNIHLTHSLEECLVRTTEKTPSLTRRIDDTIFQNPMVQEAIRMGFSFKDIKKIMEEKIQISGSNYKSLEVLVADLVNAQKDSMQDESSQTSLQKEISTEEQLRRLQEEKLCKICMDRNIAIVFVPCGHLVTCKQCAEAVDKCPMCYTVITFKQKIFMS

Molecule: [NH2][Pt]([NH2])([Cl])[Cl] [CDDP, cisplatin]
cells undergoing apoptosis as compared to control cells (MDA-231 cells; 25 μM CDDP alone): about 25%
cells undergoing apoptosis as compared to control cells (MDA-231 cells; 50 μM CDDP alone): ~42%
cancer cells undergoing apoptosis as compared to control cells (PC-3 cells; 50 μM CDDP alone, 42 hours): ~25%

Molecule: CCC[C@H](N)C(=O)N[C@H]1CC[C@H]2CC[C@@H](C(=O)NCc3ccccc3)N2C1=O [SH-93]
potentiation of the activity of CDDP in inducing apoptosis (MDA-231 cells): unable to potentiate
potentiation of the activity of CDDP in inducing apoptosis (PC-3 cells): unable to potentiate

Kd [1]: 17.9 nM
Molecule: CC[C@H](N)C(=O)N[C@@H](CCCNC(=N)N)C(=O)N1CCC[C@H]1C(=O)N[C@@H](Cc1ccccc1)C(=O)N[C@@H](CCCCNC(=O)c1ccc2c(c1)C1(OC2=O)c2ccc(O)cc2Oc2cc(O)ccc21)C(N)=O [SM5F, AbuRPFK-FAM] (H-[Abu]RPFK(6FAM)-NH2; N-terminus and C-terminus assumed)

Ki [2]: > 200000 nM
Molecule: CCC(CC)CNC(=O)[C@@H]1CC[C@@H]2CC[C@H](NC(=O)[C@H](C)N)C(=O)N21 [SH-76]

Molecule: CC[C@H](N)C(=O)N[C@H]1CCC[C@H]2CC[C@@H](C(=O)NC(c3ccccc3)c3ccccc3)N2C1=O [Compound 34]
apoptosis compared to untreated cancer cells (PC-3 cells; SH-102 alone up to 100 μM, 42 hours): did not induce significantly more apoptosis

Molecule: AVPIAQKS [Smac8, Smac peptide without a carrier peptide, negative control]
inhibition of cell growth (in words) [3]: essentially ineffective
potentiation of the activity of CDDP in inducing apoptosis (MDA-231 cells): unable to potentiate
potentiation of the activity of CDDP in inducing apoptosis (PC-3 cells): unable to potentiate

B1: mature Smac protein: mature Smac/DIABLO protein, endogenous inhibitor of XIAP (protein, UniProt Q9NR28 22-239, looked up)
Diablo IAP-binding …: LCVPVVANFKKRCFSELIRPWHKTVTIGFGVTLCAVPIAQKSEPHSLSSEALMRRAVSLVTDSTSTFLSQTTYALIEAITEYTKAVYTLTSLYRQYTSLLGKMNSEEEDEVWQVIIGARAEMTSKHQEYLKLETTWMTAVGLSEMAAEAAYQTGADQASITARNHIQLVKLQVEEVHQLSRKAETKLAEAQIEELRQKTQEEGEERAESEQEAYLRED
Kd (XIAP): 420 nM
